Earlier results, collected in US20060083727A1, “Methods and compositions for the treatment of diseases characterized by calcification and/or plaque formation” (Nanobac Pharmaceuticals, Inc., priority 2004, published 2006).

Test system: NB/CNP
Conditions: background statement

In the case of `O=C(O)CN(CCN(CC(=O)O)CC(=O)O)CC(=O)O` [EDTA, Ethylenediaminetetraacetic acid], the “Effect on protective biofilm secreted by NB/CNP” value is listed as “can assist in dissolving the protective biofilm”.
In the case of Penicillin, the “Killing / sensitivity of NB/CNP” value is listed as “cannot be killed”.
